Laboratory results reported in PMC9436859, “Chromatographic separation of glycated peptide isomers derived from glucose and fructose” (Analytical and Bioanalytical Chemistry, 2022).

Assays:
Assay type in all cases: physicochemical
[1] = RP-HPLC retention at neutral pH, Aqua C18, sodium phosphate; details: Aqua C18 (3 µm, 125 Å), sodium phosphate 10 mmol/L pH 7.2, 0.6% acetonitrile/min, 60 °C, UV 214 nm, mixture of family #2, order from individual injections
Procedure: (§1) Separations used either a Synergi Fusion-RP C18 column (ID: 2 mm, length: 150 mm, particle size: 4 µm, pore size: 80 Å, Phenomenex) or Aqua C18 column (ID: 2 mm, length: 150 mm, particle size: 3 µm, pore size: 125 Å, Phenomenex) using a System Gold HPLC equipped with a 507e autosampler (100 µL injection volume), a 125NM binary gradient pump, and a 166 UV/VIS detector. Eluents were water (eluent B1) and aqueous acetonitrile (60% v/v, eluent B2 or 40% v/v, eluent B3) containing sodium or potassium phosphate buffer or ammonium acetate (10 mmol/L). Eluents were prepared from aqueous stock solutions (0.1 mol/L) adjusted to pH 7.2, in case of ammonium acetate with ammonia. Solvents were filtered (pore size, 0.2 µm; Pall Corp., Ann Arbor, MI) and sonicated for 15 min prior to use. Peptides were eluted using a linear acetonitrile gradient from either 5 to 95% eluent B2 in 30 min, 5 to 70% eluent B2 in 65 min, or 7.5 to 95% eluent B3 in 58 min. Unless otherwise indicated, separations were performed at 60 °C with a flow rate of 0.2 mL/min and the absorbance was recorded at 214 nm. Fractions were analyzed by matrix-assisted laser desorption/ionization time-of-flight MS (MALDI-TOF/TOF–MS) on a 5800 proteomic analyzer (ABSciex GmbH, Darmstadt, Germany) operating in reflector mode and using a solution of α-cyano-4-hydroxycinnamic acid (4 g/L) in eluent A2 as matrix.

[2] = RP-HPLC retention at neutral pH, Synergi Fusion RP, potassium phosphate; details: potassium phosphate 10 mmol/L pH 7.2, 60 °C, UV 214 nm; for retention time (tr): Synergi Fusion RP, family #2 mixture (Fig. S10)
Procedure: as §1

[3] = IP-RP-HPLC retention, Jupiter C18, 0.1% TFA; details: 60 °C, UV 214 nm
Procedure: Separations used a Jupiter C18 column (ID: 2 mm, length: 150 mm, particle size: 5 µm, pore size: 300 Å, Phenomenex) and a System Gold HPLC equipped with a 508 autosampler (100 µL injection volume), a 125NM binary gradient pump, and a UV detector (Knauer GmbH, Berlin, Germany). Eluents were 0.1% (v/v) TFA (eluent A1) and 60% (v/v) aqueous acetonitrile containing 0.1% (v/v) TFA (eluent A2). Peptides were eluted using a linear acetonitrile gradient from either 5 to 95% eluent A2 in 30 min or 5 to 60% eluent A2 in 55 min. Separations were performed at a column temperature of 60 °C with a flow rate of 0.2 mL/min, and the absorbance was recorded at 214 nm. Separations were performed twice with deviations of the retention times of ~ 0.2 min for the shallow gradient.

[4] = RP-HPLC retention at neutral pH, Synergi Fusion RP, sodium phosphate; details: linear 65-min gradient 3 to 42% acetonitrile, sodium phosphate 10 mmol/L pH 7.2, 60 °C, UV 214 nm, family mixture
Procedure: as §1

[5] = nanoUPLC-ESI-Orbitrap-MS retention, BEH C18, 0.1% formic acid; details: nanoRP-UPLC, 30 °C, XIC; for retention time (tr): Acquity BEH C18 (1.7 µm), 87-min gradient 3 to 40% acetonitrile, glycated peptide mixture, 500 fmol each, glucated peptide or glucosyl-lysine species of the fructated peptide; for retention time (tr), mannosyl-lysine species: Acquity BEH C18, 87-min gradient 3 to 40% acetonitrile, second peak of the fructated peptide (mannosyl-lysine)
Procedure: Peptides were analyzed on a nanoAcquity UPLC (Waters GmbH) coupled on-line to an LTQ Orbitrap XL ETD mass spectrometer equipped with a nano-ESI source (Thermo Fisher Scientific GmbH, Bremen, Germany) operated in positive ion mode. Eluents were aqueous formic acid (0.1% v/v; eluent D1) and acetonitrile-containing formic acid (0.1% v/v; eluent D2). Peptides (10 µL, 500 fmol each) were trapped on a nanoAcquity Symmetry C18 column (ID: 180 μm, length: 2 cm, particle diameter: 5 μm) at a flow rate of 5 μL/min (3% eluent D2). Separation was achieved on a BEH 130 column (C18 phase, ID: 75 μm, length: 10 cm, particle diameter: 1.7 μm) using a flow rate of 0.4 μL/min and a column temperature of 30 °C. Peptides were eluted with two linear gradients from 3 to 40% eluent D2 in 87 min and then to 85% eluent D2 in 5 min. The transfer capillary temperature was set to 200 °C, and an ion spray voltage of 1.4 kV was applied to a PicoTip™ on-line nano-ESI emitter (New Objective, Berlin, Germany). Mass spectra (m/z range 400 to 2000) were recorded in the Orbitrap mass analyzer at a resolution of 60,000 at m/z 400. Tandem mass spectra were acquired in CID mode (isolation width 2 m/z units, normalized collision energy 35%, activation time 30 ms, default charge state 2, intensity threshold of 500 counts) using data-dependent acquisition (DDA) for the six most intense signals with a dynamic exclusion window of 60 s.

[6] = Jupiter C18, 0.1% TFA, 0.6% acetonitrile/min, family injected as a mixture (Fig. S3F)

## ADLAKAmaYIC*ENQDSISSK [2B, glucated (Amadori) tryptic peptide HSA A258-K274, K262]
[1]
  retention time (tr): 38.0 min
[2]
  retention time (tr): 32.9 min

## ADLAKHeyYIC*ENQDSISSK [2C, fructated (Heyns) tryptic peptide HSA A258-K274, K262]
[1]
  retention time (tr): 36.5 min
[2]
  retention time (tr): 31.4 min

## AEFAEVSKAmaLVTDLTK [6B, glucated (Amadori) tryptic peptide HSA A226-K240, K233]
[3]; [6]
  retention time: 52.2 min
[4]
  retention time (tr): 45.3 min
[5]
  retention time (tr): 56.0 min

## AEFAEVSKHeyLVTDLTK [6C, fructated (Heyns) tryptic peptide HSA A226-K240, K233]
[3]; [6]
  retention time: 51.9 min
[4]
  retention time (tr): 43.4 min
[5]
  retention time (tr): 55.7 min
  retention time (tr), mannosyl-lysine species: 56.3 min

## AVGDKHeyLPEC*EAVC*GKPK [1C, fructated (Heyns) tryptic peptide HP A77-K93, glycation site K81]
[3]; Jupiter C18 (5 µm, 300 Å), 0.1% TFA, 5 to 60% eluent A2 in 55 min (0.6% acetonitrile/min), 0.2 mL/min, performed twice, deviations ~0.2 min
  retention time: 27.6 min
[3]; Jupiter C18, 0.1% TFA, 0.6% acetonitrile/min
  acetonitrile content at elution: ~ 13%

## EQLKAmaAVMDDFAAFVEK [7B, glucated (Amadori) tryptic peptide HSA E542-K557, K545]
[5]
  retention time (tr): 59.5 min

## EQLKHeyAVMDDFAAFVEK [7C, fructated (Heyns) tryptic peptide HSA E542-K557, K545]
[5]
  retention time (tr): 59.5 min
  retention time (tr), mannosyl-lysine species: 60.2 min

## TC*VADESAENC*DKHeySLHTLFGDK [3C, fructated (Heyns) tryptic peptide HSA T52-K73, K64]
[2]; new Synergi Fusion RP column, 58-min gradient 3 to 38% acetonitrile (eluent B3, 0.6%/min)
  retention time: 26.2 min
